Reference: patent publication US8329904B2, “Azacyclic derivatives” (Hoffmann-La Roche Inc., priority 2009, dated 2012)

target: T1, human HSL (Homo sapiens, UniProt Q05469); assay: Human Hormone-Sensitive Lipase (HSL) Enzyme Inhibition Assay; format: biochemical; conditions: colorimetric assay, 2,3-dimercapto-1-propanol tributyrate (DMPT) substrate, 37° C. for 20 minutes, absorbance at 405 nm; read-out: HSL hum IC50
T1 construct: overlapping PCR to generate a full length human HSL ORF with a 3′-His6 tag; His6 (C); made in house; host or cells: High 5 insect cells (baculovirus, pFast-BAC)
T1 sequence (Q05469 1-1076): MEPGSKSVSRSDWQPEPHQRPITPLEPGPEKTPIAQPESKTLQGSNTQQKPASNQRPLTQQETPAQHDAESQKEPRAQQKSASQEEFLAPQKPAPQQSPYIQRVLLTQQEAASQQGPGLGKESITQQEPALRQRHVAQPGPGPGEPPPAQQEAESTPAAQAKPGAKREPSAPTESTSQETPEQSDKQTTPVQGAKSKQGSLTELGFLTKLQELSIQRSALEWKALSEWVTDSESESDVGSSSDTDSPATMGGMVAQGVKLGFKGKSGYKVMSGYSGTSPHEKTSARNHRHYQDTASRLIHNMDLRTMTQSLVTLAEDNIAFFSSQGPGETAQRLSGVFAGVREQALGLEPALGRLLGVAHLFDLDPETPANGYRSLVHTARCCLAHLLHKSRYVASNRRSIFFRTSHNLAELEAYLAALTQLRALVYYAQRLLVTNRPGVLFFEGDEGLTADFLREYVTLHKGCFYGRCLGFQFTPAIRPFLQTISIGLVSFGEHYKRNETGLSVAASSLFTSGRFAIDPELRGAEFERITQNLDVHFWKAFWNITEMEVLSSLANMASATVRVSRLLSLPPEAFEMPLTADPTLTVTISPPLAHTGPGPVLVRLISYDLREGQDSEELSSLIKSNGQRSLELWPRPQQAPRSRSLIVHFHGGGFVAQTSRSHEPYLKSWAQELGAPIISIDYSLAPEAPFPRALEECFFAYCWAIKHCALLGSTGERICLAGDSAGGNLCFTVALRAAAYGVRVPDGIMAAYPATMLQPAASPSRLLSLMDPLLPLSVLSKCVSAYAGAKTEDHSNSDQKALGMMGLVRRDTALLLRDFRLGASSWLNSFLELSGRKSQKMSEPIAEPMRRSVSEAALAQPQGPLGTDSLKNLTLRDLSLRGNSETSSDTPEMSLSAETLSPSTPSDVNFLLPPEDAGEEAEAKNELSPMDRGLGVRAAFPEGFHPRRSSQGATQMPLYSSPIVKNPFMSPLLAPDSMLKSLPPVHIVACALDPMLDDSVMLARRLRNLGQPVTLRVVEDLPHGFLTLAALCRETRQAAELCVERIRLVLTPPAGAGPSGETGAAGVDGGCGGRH
Summary of the method: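 Colorimetric thioester hydrolysis: compounds in DMSO series mixed with DMPT (1.5 mM) in MOPS pH 7.2 with BSA, then baculovirus-expressed His6-tagged full-length human HSL added, 37° C, 20 min. DTNB plus detergents added, 15 min room temperature, absorbance at 405 nm.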

IC50 | SMILES
80 nM | Cn1ccc(S(=O)(=O)N2CCC3(CCN(c4ccc(OC(F)(F)F)cc4)C3=O)CC2)n1 [Example 184, 8-(1-Methyl-1H-pyrazole-3-sulfonyl)-2-(4-trifluoromethoxy-phenyl)-2,8-diaza-spiro[4.5]decan-1-one]
220 nM | Cc1oncc1S(=O)(=O)N1CCC2(CCN(c3ccc(OC(F)(F)F)cc3)C2=O)CC1 [Example 185, 8-(5-Methyl-isoxazole-4-sulfonyl)-2-(4-trifluoromethoxy-phenyl)-2,8-diaza-spiro[4.5]decan-1-one]
110 nM | Cc1noc(C)c1S(=O)(=O)N1CCC2(CCN(c3ccc(OC(F)(F)F)cc3)C2=O)CC1 [Example 186, 8-(3,5-Dimethyl-isoxazole-4-sulfonyl)-2-(4-trifluoromethoxy-phenyl)-2,8-diaza-spiro[4.5]decan-1-one]
30 nM | O=C1N(c2ccc(OC(F)(F)F)cc2)CCC12CCN(S(=O)(=O)c1cccnc1)CC2 [Example 187, 8-(Pyridine-3-sulfonyl)-2-(4-trifluoromethoxy-phenyl)-2,8-diaza-spiro[4.5]decan-1-one]
20 nM | O=C1N(c2ccc(OC(F)(F)F)cc2)CCC12CCN(S(=O)(=O)c1cccnc1Cl)CC2 [Example 188, 8-(2-Chloro-pyridine-3-sulfonyl)-2-(4-trifluoromethoxy-phenyl)-2,8-diaza-spiro[4.5]decan-1-one]
30 nM | CNc1ncccc1S(=O)(=O)N1CCC2(CCN(c3ccc(OC(F)(F)F)cc3)C2=O)CC1 [Example 189, 8-(2-Methylamino-pyridine-3-sulfonyl)-2-(4-trifluoromethoxy-phenyl)-2,8-diaza-spiro[4.5]decan-1-one]
20 nM | CN(C)c1ncccc1S(=O)(=O)N1CCC2(CCN(c3ccc(OC(F)(F)F)cc3)C2=O)CC1 [Example 190, 8-(2-Dimethylamino-pyridine-3-sulfonyl)-2-(4-trifluoromethoxy-phenyl)-2,8-diaza-spiro[4.5]decan-1-one]
80 nM | O=C1N(c2ccc(OC(F)(F)F)cc2)CCC12CCN(S(=O)(=O)c1cccnc1NC1CC1)CC2 [Example 191, 8-(2-Cyclopropylamino-pyridine-3-sulfonyl)-2-(4-trifluoromethoxy-phenyl)-2,8-diaza-spiro[4.5]decan-1-one]
40 nM | O=C1N(c2ccc(OC(F)(F)F)cc2)CCC12CCN(S(=O)(=O)c1cccnc1NCCO)CC2 [Example 192, 8-[2-(2-Hydroxy-ethylamino)-pyridine-3-sulfonyl]-2-(4-trifluoromethoxy-phenyl)-2,8-diaza-spiro[4.5]decan-1-one]
60 nM | CC(CO)Nc1ncccc1S(=O)(=O)N1CCC2(CCN(c3ccc(OC(F)(F)F)cc3)C2=O)CC1 (centres unmarked) [Example 193, 8-[2-(2-Hydroxy-1-methyl-ethylamino)-pyridine-3-sulfonyl]-2-(4-trifluoromethoxy-phenyl)-2,8-diaza-spiro[4.5]decan-1-one]
20 nM | COc1ncccc1S(=O)(=O)N1CCC2(CCN(c3ccc(OC(F)(F)F)cc3)C2=O)CC1 [Example 194, 8-(2-Methoxy-pyridine-3-sulfonyl)-2-(4-trifluoromethoxy-phenyl)-2,8-diaza-spiro[4.5]decan-1-one]
50 nM | O=C1N(c2ccc(OC(F)(F)F)cc2)CCC12CCN(S(=O)(=O)c1cccnc1OCc1ccccc1)CC2 [Example 195, 8-(2-Benzyloxy-pyridine-3-sulfonyl)-2-(4-trifluoromethoxy-phenyl)-2,8-diaza-spiro[4.5]decan-1-one]
230 nM | O=C1N(c2ccc(OC(F)(F)F)cc2)CCC12CCN(S(=O)(=O)c1cccnc1O)CC2 [Example 196, 8-(2-Hydroxy-pyridine-3-sulfonyl)-2-(4-trifluoromethoxy-phenyl)-2,8-diaza-spiro[4.5]decan-1-one]
80 nM | Nc1ncccc1S(=O)(=O)N1CCC2(CCN(c3ccc(OC(F)(F)F)cc3)C2=O)CC1 [Example 197, 8-(2-Amino-pyridine-3-sulfonyl)-2-(4-trifluoromethoxy-phenyl)-2,8-diaza-spiro[4.5]decan-1-one]
150 nM | O=C1N(c2ccc(OC(F)(F)F)cc2)CCC12CCN(S(=O)(=O)c1ccc(Cl)nc1)CC2 [Example 198, 8-(6-Chloro-pyridine-3-sulfonyl)-2-(4-trifluoromethoxy-phenyl)-2,8-diaza-spiro[4.5]decan-1-one]
140 nM | O=C1N(c2ccc(OC(F)(F)F)cc2)CCC12CCN(S(=O)(=O)c1cnccc1Cl)CC2 [Example 199, 8-(4-Chloro-pyridine-3-sulfonyl)-2-(4-trifluoromethoxy-phenyl)-2,8-diaza-spiro[4.5]decan-1-one]
170 nM | COc1ccncc1S(=O)(=O)N1CCC2(CCN(c3ccc(OC(F)(F)F)cc3)C2=O)CC1 [Example 200, 8-(4-M ethoxy-pyridine-3-sulfonyl)-2-(4-trifluoromethoxy-phenyl)-2,8-diaza-spiro[4.5]decan-1-one]
50 nM | O=C1N(c2ccc(OC(F)(F)F)cc2)CCC12CCN(S(=O)(=O)c1ccccn1)CC2 [Example 201, 8-(Pyridine-2-sulfonyl)-2-(4-trifluoromethoxy-phenyl)-2,8-diaza-spiro[4.5]decan-1-one]
160 nM | O=C1N(c2ccc(OC(F)(F)F)cc2)CCC12CCN(S(=O)(=O)c1ncccn1)CC2 [Example 202, 8-(Pyrimidine-2-sulfonyl)-2-(4-trifluoromethoxy-phenyl)-2,8-diaza-spiro[4.5]decan-1-one]
250 nM | O=C1N(c2ccc(OC(F)(F)F)cc2)CCC12CCN(S(=O)(=O)c1ccncc1)CC2 [Example 203, 8-(Pyridine-4-sulfonyl)-2-(4-trifluoromethoxy-phenyl)-2,8-diaza-spiro[4.5]decan-1-one]
140 nM | Cc1ccc(S(=O)(=O)N2CCC3(CCN(c4ccc(OC(F)(F)F)cc4)C3=O)CC2)nn1 [Example 204, 8-(6-Methyl-pyridazine-3-sulfonyl)-2-(4-trifluoromethoxy-phenyl)-2,8-diaza-spiro[4.5]decan-1-one]
60 nM | O=C1N(c2ccc(OCC(F)(F)F)cc2)CCC12CCN(S(=O)(=O)c1cccnc1)CC2 [Example 205, 8-(Pyridine-3-sulfonyl)-2-[4-(2,2,2-trifluoro-ethoxy)-phenyl]-2,8-diaza-spiro[4.5]decan-1-one]
30 nM | O=C1N(c2ccc(OCC(F)(F)F)cc2)CCC12CCN(S(=O)(=O)c1cccnc1Cl)CC2 [Example 206, 8-(2-Chloro-pyridine-3-sulfonyl)-2-[4-(2,2,2-trifluoro-ethoxy)-phenyl]-2,8-diaza-spiro[4.5]decan-1-one]
60 nM | CNc1ncccc1S(=O)(=O)N1CCC2(CCN(c3ccc(OCC(F)(F)F)cc3)C2=O)CC1 [Example 207, 8-(2-Methylamino-pyridine-3-sulfonyl)-2-[4-(2,2,2-trifluoro-ethoxy)-phenyl]-2,8-diaza-spiro[4.5]decan-1-one]
160 nM | O=C1N(c2ccc(OC(F)(F)F)cc2)CCC12CCN(S(=O)(=O)CC(O)C1CC1)CC2 (centres unmarked) [Example 208, 8-(2-Cyclopropyl-2-hydroxy-ethanesulfonyl)-2-(4-trifluoromethoxy-phenyl)-2,8-diaza-spiro[4.5]decan-1-one]
50 nM | COC(CS(=O)(=O)N1CCC2(CCN(c3ccc(OC(F)(F)F)cc3)C2=O)CC1)C1CC1 (centres unmarked) [Example 209, 8-(2-Cyclopropyl-2-methoxy-ethanesulfonyl)-2-(4-trifluoromethoxy-phenyl)-2,8-diaza-spiro[4.5]decan-1-one]
